Consider 22 compounds from publication PMC8047747 (ACS Omega, 2021).

Data set [1] relates to Mycobacterium tuberculosis H37Rv (ATCC27294). Briefly: microbe, parasite or virus in culture. The format is cell-based.
Data set [2] relates to mouse macrophage RAW 264.7 cells.
The next data set can be described thus: in vitro. The following applies: mouse.
Data set [3] has as its system M. tuberculosis H37Rv nutrient-starved culture. Format: cell-based, Mycobacterium tuberculosis.
Setting [4] is: Mycobacterium tuberculosis, ATCC27294|H37RV.
The mark [5] stands for this setting: RAW 264.7 cells, 50 μg/mL, 48 hr, MTT.

Usually IC50 stands for the point on the concentration scale where inhibition reaches its midpoint. Read a low IC50 as greater potency in that assay.

Values after ≈ are worked out from the molar mass of the structure shown. Like-named read-outs stand apart in the source and are kept apart here.

With `O=[N+]([O-])c1ccc(S(=O)(=O)N2CCN(C(c3ccccc3)c3ccccc3)CC2)c([N+](=O)[O-])c1` [7a, 1-Benzhydryl-4-((2,4-dinitrophenyl)sulfonyl)piperazine], the MIC was 1.56 µg/mL (≈ 3.23 µM) in data set [1] (Mtb H37Rv, repeated in Table 2) and 1.56 µg/mL (≈ 3.23 µM) in data set [1] (setting [4]). In data set [2] (setting [5]), the “% cell inhibition at 50 μg/mL” value was found to be 57.6%. Moreover, in the data set “in vitro”, the half-inhibitory concentration (IC50) is > 50 µg/mL.
As to `O=C(CCCNS(=O)(=O)c1ccc([N+](=O)[O-])cc1[N+](=O)[O-])N1CCN(C(c2ccc(F)cc2)c2ccc(F)cc2)CC1` [7aa, N-(4-(4-(Bis(4-fluorophenyl)methyl)piperazin-1-yl)-4-oxobutyl)-2,4-dinitrobenzene Sulfonamide], the MIC in data set [1] (Mtb H37Rv, repeated in Table 2) is 0.78 µg/mL (≈ 1.29 µM); in data set [1] (setting [4]), 0.78 µg/mL (≈ 1.29 µM). In addition, the “% cell inhibition at 50 μg/mL” value in data set [2] (setting [5]) is reported as 59.2%. The IC50 in “in vitro” is > 50 µg/mL.
For the compound `O=C(C1CCN(S(=O)(=O)c2ccc([N+](=O)[O-])cc2[N+](=O)[O-])C1)N1CCN(C(c2ccccc2)c2ccccc2)CC1` (stereo not shown) [7y, (4-Benzhydrylpiperazin-1-yl) (1-((2,4-Dinitrophenyl)sulfonyl)pyrrolidin-3-yl)methanone], the MIC in data set [1] (Mtb H37Rv, repeated in Table 2) was 0.78 µg/mL (≈ 1.35 µM); in data set [1] (setting [4]), 0.78 µg/mL (≈ 1.35 µM). In addition, the “% cell inhibition at 50 μg/mL” value in data set [2] (setting [5]) was found to be 59.6%. Further, in the data set “in vitro”, the half-inhibitory concentration (IC50) was > 50 µg/mL.
Consider `O=[N+]([O-])c1ccc(S(=O)(=O)N2CCN(C(c3ccccc3)c3ccccc3)CC2)cc1` [7c, 1-Benzhydryl-4-((4-nitrophenyl)sulfonyl)piperazine], for which, in data set [1] (setting [4]), the MIC was > 25 µg/mL.
As for `O=C(CCNS(=O)(=O)c1ccc([N+](=O)[O-])cc1[N+](=O)[O-])N1CCN(C(c2ccc(F)cc2)c2ccc(F)cc2)CC1` [7l, N-(3-(4-(Bis(4-fluorophenyl)methyl)piperazin-1-yl)-3-oxopropyl)-2,4-dinitrobenzene Sulfonamide], the MIC in data set [1] (Mtb H37Rv, repeated in Table 2) stood at 0.78 µg/mL (≈ 1.32 µM); in data set [1] (setting [4]) it was 0.78 µg/mL (≈ 1.32 µM). The “% cell inhibition at 50 μg/mL” value in data set [2] (setting [5]) turned out to be 60.2%. Further, in “in vitro”, the IC50 is > 50 µg/mL.
With `CC[C@@H](CO)NCCN[C@@H](CC)CO` [Ethambutol, reference compound], the MIC in data set [1] (setting [4]) was 1.56 µg/mL (≈ 7.64 µM).
For the compound `O=C(C1CCCN(S(=O)(=O)c2ccc([N+](=O)[O-])cc2[N+](=O)[O-])C1)N1CCN(C(c2ccccc2)c2ccccc2)CC1` (stereo not shown) [7s, (4-Benzhydrylpiperazin-1-yl) (1-((2,4-Dinitrophenyl)sulfonyl)piperidin-3-yl)methanone], the MIC turned out to be 0.78 µg/mL (≈ 1.31 µM) in data set [1] (Mtb H37Rv, repeated in Table 2) and 0.78 µg/mL (≈ 1.31 µM) in data set [1] (setting [4]). For the same compound, the “% cell inhibition at 50 μg/mL” value in data set [2] (setting [5]) is 59.2%. Moreover, the concentration for half-maximal inhibition (IC50) in the data set “in vitro” is > 50 µg/mL.
In the case of `O=[N+]([O-])c1ccccc1S(=O)(=O)N1CCN(C(c2ccc(F)cc2)c2ccc(F)cc2)CC1` [7e, 1-(Bis(4-fluorophenyl)methyl)-4-((2-nitrophenyl)sulfonyl)piperazine], the MIC in data set [1] (setting [4]) was > 25 µg/mL.
For `O=C(CCNS(=O)(=O)c1ccc([N+](=O)[O-])cc1[N+](=O)[O-])N1CCN(C(c2ccccc2)c2ccccc2)CC1` [7k, N-(3-(4-Benzhydrylpiperazin-1-yl)-3-oxopropyl)-2,4-dinitrobenzenesulfonamide], the MIC in data set [1] (Mtb H37Rv, repeated in Table 2) came to 0.78 µg/mL (≈ 1.41 µM); in data set [1] (setting [4]) it was 0.78 µg/mL (≈ 1.41 µM). For the same compound, the “% cell inhibition at 50 μg/mL” value in data set [2] (setting [5]) is 61.4%. The IC50 in “in vitro” is > 50 µg/mL.
Regarding `O=C(C1CCN(S(=O)(=O)c2ccc([N+](=O)[O-])cc2)CC1)N1CCN(C(c2ccccc2)c2ccccc2)CC1` [7q, (4-Benzhydrylpiperazin-1-yl) (1-((4-Nitrophenyl)sulfonyl)piperidin-4-yl)methanone], the MIC in data set [1] (setting [4]) is > 25 µg/mL.
Still for that read-out and setting: then `O=[N+]([O-])c1ccc(S(=O)(=O)N2CCN(C(c3ccc(F)cc3)c3ccc(F)cc3)CC2)c([N+](=O)[O-])c1` [7d, 1-(Bis(4-fluorophenyl)methyl)-4-((2,4-dinitrophenyl)sulfonyl)piperazine], with > 25 µg/mL.
`O=C(CNS(=O)(=O)c1ccc([N+](=O)[O-])cc1[N+](=O)[O-])N1CCN(C(c2ccccc2)c2ccccc2)CC1` [7g, N-(2-(4-Benzhydrylpiperazin-1-yl)-2-oxoethyl)-2,4-dinitrobenzenesulfonamide]: the MIC in data set [1] (setting [4]) turned out to be 12.5 µg/mL (≈ 23.2 µM).
Consider `CO[C@H]1/C=C/O[C@@]2(C)Oc3c(C)c(O)c4c(O)c(c(/C=N/N5CCN(C)CC5)c(O)c4c3C2=O)NC(=O)/C(C)=C\C=C\[C@H](C)[C@H](O)[C@@H](C)[C@@H](O)[C@@H](C)[C@H](OC(C)=O)[C@@H]1C` [Rifampicin, reference compound], for which the MIC in data set [1] (Mtb H37Rv strain, triplicate, Table 1 and text) came to 0.10 µg/mL (≈ 0.122 µM); in data set [1] (Mtb H37Rv, repeated in Table 2), 0.1 µg/mL (≈ 0.122 µM); in data set [1] (setting [4]), 0.1 µg/mL (≈ 0.122 µM). Also, in data set [2] (setting [5]), the “% cell inhibition at 50 μg/mL” value came to 90%. In the data set “in vitro”, the IC50 is > 25 µg/mL.
`O=[N+]([O-])c1ccc(S(=O)(=O)N2CCN(C(c3ccc(F)cc3)c3ccc(F)cc3)CC2)cc1` [7f, 1-(Bis(4-fluorophenyl)methyl)-4-((4-nitrophenyl)sulfonyl)piperazine]: the MIC in data set [1] (setting [4]) is > 25 µg/mL.
Same read-out and setting: with `O=C(C1CCCN(S(=O)(=O)c2ccc([N+](=O)[O-])cc2)C1)N1CCN(C(c2ccccc2)c2ccccc2)CC1` (stereo not shown) [7u, (4-Benzhydrylpiperazin-1-yl) (1-((4-Nitrophenyl)sulfonyl)piperidin-3-yl)methanone] the figure was > 25 µg/mL.
With `NNC(=O)c1ccncc1` [Isoniazid, reference compound], the MIC in data set [1] (Mtb H37Rv, repeated in Table 2) stood at 0.05 µg/mL (≈ 0.365 µM). For the same compound, the “% cell inhibition at 50 μg/mL” value in data set [2] (setting [5]) was 97%. For the same compound, the IC50 in “in vitro” was > 25 µg/mL.
In the case of `O=C(C1CCN(S(=O)(=O)c2ccccc2[N+](=O)[O-])CC1)N1CCN(C(c2ccccc2)c2ccccc2)CC1` [7p, (4-Benzhydrylpiperazin-1-yl) (1-((2-Nitrophenyl)sulfonyl)piperidin-4-yl)methanone], in data set [1] (setting [4]), the MIC was > 25 µg/mL.
In the case of `O=C(C1CCN(S(=O)(=O)c2ccc([N+](=O)[O-])cc2[N+](=O)[O-])CC1)N1CCN(C(c2ccccc2)c2ccccc2)CC1` [7o, (4-Benzhydrylpiperazin-1-yl) (1-((2,4-dinitrophenyl)sulfonyl)piperidin-4-yl)methanone], the MIC came out at 0.78 µg/mL (≈ 1.31 µM) in data set [1] (Mtb H37Rv, repeated in Table 2) and 0.78 µg/mL (≈ 1.31 µM) in data set [1] (setting [4]). Besides, the “% cell inhibition at 50 μg/mL” value in data set [2] (setting [5]) came out at 57.2%. In the data set “in vitro”, the half-inhibitory concentration (IC50) is > 50 µg/mL.
`O=C(C1CCCN(S(=O)(=O)c2ccc([N+](=O)[O-])cc2[N+](=O)[O-])C1)N1CCN(C(c2ccc(F)cc2)c2ccc(F)cc2)CC1` (stereo not shown) [7v, (4-(Bis(4-fluorophenyl)methyl)piperazin-1-yl) (1-((2,4-Dinitrophenyl)sulfonyl)piperidin-3-yl)methanone]: the MIC is 0.78 µg/mL (≈ 1.24 µM) in data set [1] (Mtb H37Rv, repeated in Table 2) and 0.78 µg/mL (≈ 1.24 µM) in data set [1] (setting [4]). Also, the “% cell inhibition at 50 μg/mL” value in data set [2] (setting [5]) amounted to 55.7%. The IC50 in the data set “in vitro” is > 50 µg/mL.
For `O=C(C1CCCN(S(=O)(=O)c2ccccc2[N+](=O)[O-])C1)N1CCN(C(c2ccccc2)c2ccccc2)CC1` (stereo not shown) [7t, (4-Benzhydrylpiperazin-1-yl) (1-((2-Nitrophenyl)sulfonyl)piperidin-3-yl)methanone], the MIC in data set [1] (setting [4]) was > 25 µg/mL.
On to `O=[N+]([O-])c1ccccc1S(=O)(=O)N1CCN(C(c2ccccc2)c2ccccc2)CC1` [7b, 1-Benzhydryl-4-((2-nitrophenyl)sulfonyl)piperazine], for which the MIC in data set [1] (setting [4]) is > 25 µg/mL.
Take `O=C(C1CCN(S(=O)(=O)c2ccc([N+](=O)[O-])cc2[N+](=O)[O-])CC1)N1CCN(C(c2ccc(F)cc2)c2ccc(F)cc2)CC1` [7r, (4-(Bis(4-fluorophenyl)methyl)piperazin-1-yl) (1-((2,4-Nitrophenyl)sulfonyl)piperidin-4-yl)methanone]: the MIC in data set [1] stood at 1.56 µg/mL (≈ 2.48 µM). Also, the “nutrient starvation (log reduction)” value in data set [3] is 2.2 folds. Also, in data set [2], the “% cell inhibition at 50 μg/mL” value turned out to be 57.2% and the IC50 approximation was >50 µg/mL.
